Experimental findings from patent US20190160035A1, “METHOD OF TREATMENT” (QBIOTICS LIMITED, priority 2016, published 2019) are described below.

Test [1] deals with MCT (cutaneous and subcutaneous). The test is described as follows: Example 5: Compound 1 injection with oral prednisolone and antihistamine co-therapy, RECIST v.1.1 tumor response. In kind it is in vivo, Canis lupus familiaris (dog). The note with it: 1 mg/kg/day, 24 h pre-treatment and 7 days post-treatment. From the text:
This study investigates the efficacy and safety of Compound 1 injection for MCT treatment in the presence of corticosteroids administered under defined clinical situations.
Dogs were selected for the study if they met the criteria in Table 1 (Example 1) but where the dog has at least one MCT.
Wherever possible, the tumor and a 2 cm border surrounding the tumor was shaved prior to treatment. To deliver the drug, the needle of the dosing syringe was inserted into the tumor at the injection point and moved in a radial manner in 2- and 3-dimensions with drug delivered to the tumor mass. Study dogs were clinically examined at 2-4 and 24 hours, and 7 (+2), 14 (+2) and 28 (+2) days post-treatment (and unscheduled visits at attending veterinarian discretion).
(§1) Each supervising veterinarian was given latitude to provide and record prophylactic and supportive medications as deemed appropriate for managing potential paraneoplastic events and tumor site necrosis following Compound 1 treatment. However, prednisolone and antihistamines were used as co-therapy. Prednisolone therapy commenced on Day −1 and continued for a further 7 days. H1 and H2 antihistamine therapy (chlorpheniramine and famotidine respectively) commenced on the morning of drug treatment and continued for a further 6 days (see Table 23).
(§2) RECIST v.1.1 results are summarised in Table 28 which also includes a measure of neoadjuvant prednisolone action (potential tumor shrinkage) between screening and immediate pre-treatment tumor evaluation. Sixteen (16) dogs and eighteen (18) tumors were treated. Raw data for RECIST assessment was collected on Day 0 (immediately pre-treatment) and on Day 28 for fifteen (15) cases. […] With the remaining three (3) cases (C05-T-18, C05-V-01, and C05-V-02), the dogs were not available on Day 28 for RECIST assessment. For dog C05-T-18, the injection site was measured as CR on Days 21 and 37. […] For dog C05-V-01, the injection site was measured as PR on Days 21 and 37 (55% and 60% RECIST reduction respectively). […] For dog […], due to the progressive nature of disease, the animal was removed from study on Day 21.

Test [2] deals with MCT. Description: Example 5: neoadjuvant prednisolone action (tumor change between screening and immediate pre-treatment evaluation). In kind it is in vivo, Canis lupus familiaris (dog).
Source text: as §1, §2

[3] abbreviates: following 24 h neoadjuvant prednisolone, dog C05-T-17.
[4] abbreviates: per case (one dog tumor per line), negative = increase.

Values joined by “and” are separate entries in the source; they are usually repeats but may differ in a detail not shown here. Identical values can stand only once.

`C[C@]12C=CC(=O)C=C1CC[C@@H]1[C@@H]2[C@@H](O)C[C@@]2(C)[C@H]1CC[C@]2(O)C(=O)CO` [prednisolone]: the “Effect of oral prednisolone on drug (Compound 1) action” value in test [1] is recorded as “limited or no suppressive effects”. For the same compound, in test [2] (Mean of cases), the “RECIST reduction following 24 h prednisolone administration, Mean” value turned out to be 5% and the “Tumor vol (cm^3) reduction following 24 h prednisolone administration, Mean” value was 27%. Besides, in test [2] (Median of cases), the “RECIST reduction following 24 h prednisolone administration, Median” value was found to be 6% and the “Tumor vol (cm^3) reduction following 24 h prednisolone administration, Median” value was 31%. Further, in test [2] (setting [3]), the “Decrease in RECIST measure from screening to pre-treatment evaluation” value is reported as 6% and the “Decrease in tumor volume from screening to pre-treatment evaluation” value is recorded as 31%. Further, in test [2] (setting [4]), the “Tumor response following 24 h prednisolone administration (screening to immediate pre-treatment): RECIST reduction” value is −5% and 8% and −23% and 39% and −12% and 0% and 16% and −8% and 28% and 12% and 20% and 6% and 34% and −26% and −20%; the “Tumor response following 24 h prednisolone administration (screening to immediate pre-treatment): Tumor vol (cm^3) reduction” value was 23% and 62% and −36% and 71% and 61% and 13% and 59% and 35% and 45% and 27% and 31% and 76% and −118% and 14%.
